Measured values from patent US10844071B2, “Substituted [1,2,3]triazolo[4,5-d]pyrimidines that lower stress-induced p-tau” (BUCK INSTITUTE FOR RESEARCH ON AGING, priority 2015, dated 2020).
Values after ≈ are worked out from the molar mass of the structure shown. Structures can show the parent of a compound that is named as a salt. Where two headings read alike, the source gives them in different places. Each block holds one compound with its values, some of them ahead of it.

Legend:
SH-SY5Y cells [1] = test: Secondary screen in SH-SY5Y cells with CRF stimulation (tau, p-tau, sAPPα); format: cell-based
Experimental: (§1) As described below, in vitro studies were performed using SHSY-5Y cells. These cells are a useful neurological model that differentiate into cells with morphological and biochemical characteristics of mature neurons including mature isoforms of tau.
In an initial study, SHSY-5Y cells were cultured without serum to induce differentiation and increase tau expression. […] The increases were proportional and both were about 50%. J03 (FIG. 4A) reduced the CRF-induced tau increases more than the p-tau increases. The increase in p-tau with CRF was expected, but the increase in tau less predictable as CRF reduces neuronal differentiation (see Chen et al. (2004) Proc. Natl. Acad. Sci. USA, 101(44): 15782-15787), however, it can increase tau accumulation.

SH-SY5Y cells [2] = test: Primary screen in SH-SY5Y cells (tau, p-tau); format: cell-based; conditions: for Tau % / p-Tau (%): Primary (SH-SY5Y); for p-tau / tau: SH-SY5Y cells, no CRF
Experimental: as §1
However, J04 did lower p-tau to the same level as J03 and significant may not have been reached due to low N #.

CRF1 = target: T1, CRF1 (Homo sapiens, UniProt P34998); test: CRF1 binding (Ki); conditions: Tertiary; read-out: CRF1 Ki
T1 sequence (P34998 24-415): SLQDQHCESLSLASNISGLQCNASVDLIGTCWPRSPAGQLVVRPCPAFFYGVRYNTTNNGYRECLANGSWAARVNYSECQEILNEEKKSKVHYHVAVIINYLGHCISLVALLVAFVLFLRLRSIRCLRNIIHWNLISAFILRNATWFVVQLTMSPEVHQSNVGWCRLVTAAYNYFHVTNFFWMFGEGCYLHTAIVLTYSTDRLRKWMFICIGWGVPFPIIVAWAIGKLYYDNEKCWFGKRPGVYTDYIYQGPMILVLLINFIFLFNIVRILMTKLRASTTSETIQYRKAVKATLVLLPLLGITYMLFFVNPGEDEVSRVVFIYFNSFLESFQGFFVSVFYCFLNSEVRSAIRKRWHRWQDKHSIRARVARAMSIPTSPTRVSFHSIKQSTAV

Solubility in DMSO = format: physicochemical
PAMPA = format: in vitro ADME; conditions: Tertiary
[3] = In vivo pharmacokinetics, brain and plasma levels; design: species or system mouse
J20 mice = test: J17 pilot study in J20 mice (oral, 28 days); format: in vivo, mouse
Experimental: Animal experiments were performed using J20 mice. The J20 mouse is a model of for Alzheimer's disease. This model overexpresses human APP with two mutations linked to familial Alzheimer's disease (the APP KM670/671NL (Swedish) and […] (Indiana) mutations).
In a J17 pilot study (#1 pilot study) male and female J20 mice were housed singly and treated with J17 at 10 mkd by oral delivery for 28 days. […]

[4] = Secondary (SH-Sy5Y, CRF stimulation)
[5] = organic solvent or mixture, read-out: Solubility
[6] = SH-SY5Y cells, CRF-induced increase
[7] = subcutaneous injection of 10 mg/kg

Ki (CRF1): 25 nM | solubility (Solubility in DMSO; [5]): ~10 mM (≈ 3680 µg/mL) | PAMPA (PAMPA): 1.11
Structure (SMILES): CCC(COC)n1nnc2c(N(C)c3c(C)cc(C)cc3C)nc(C)nc21 (centres unmarked) [Compound J14]
Tau % (SH-SY5Y cells [2]): Unchanged

Ki (CRF1): > 1000 nM | solubility (Solubility in DMSO; [5]): ~10 mM (≈ 3340 µg/mL) | PAMPA (PAMPA): 0.34
Structure (SMILES): CCC(COC)n1nnc2c(N(C)C3CCOCC3)nc(C)nc21 (centres unmarked) [Compound J15]
Tau % (SH-SY5Y cells [1]; [4]): ↓>30% | p-Tau (%) (SH-SY5Y cells [1]; [4]): ↓>30% | sAPPα (%) (SH-SY5Y cells [1]; [4]): >10% | Tau % (SH-SY5Y cells [2]): Unchanged | p-Tau (%) (SH-SY5Y cells [2]): ↓>10%

brain levels at the peak ([3]; SQ injection at 10 mkd): ~190 ng/g | time of peak brain level after injection ([3]; SQ injection at 10 mkd): 4 h | brain levels with oral delivery compared to SQ ([3]; oral delivery, detectable from 1 to 6 hours): much lower | solubility (Solubility in DMSO; [5]): ~10 mM (≈ 3610 µg/mL) | PAMPA (PAMPA): 0.75
Structure (SMILES): CCC(COC)Nc1nc(C)nc2c1nnn2-c1ccc(Cl)cc1C (centres unmarked) [Compound J19, 3-(4-Chloro-2-methylphenyl)-N-(1-methoxybutan-2-yl)-5-methyl-3H-[1,2,3]triazolo[4,5-d]pyrimidin-7-amine]
p-tau/tau ratios (SH-SY5Y cells [1]; 50 and 100 nM CRF, FIG. 28 panel C): highly significantly decreased | sAPPα (SH-SY5Y cells [1]; FIG. 28 panel D, significance for J03 at 100 nM CRF): trend for sAPPα to be higher | sAPPα (%) (SH-SY5Y cells [1]; [4]): Unchanged | tau (SH-SY5Y cells [1]; absence of CRF and presence of 100 nM CRF, FIG. 28 panel A): trend to decrease | p-tau (SH-SY5Y cells [1]; presence and absence of CRF, FIG. 28 panel B): significantly reduced | p-tau/tau ratio (SH-SY5Y cells [2]; FIG. 29): unchanged | p-tau (SH-SY5Y cells [2]): decreased | tau (SH-SY5Y cells [2]): decreased

solubility (Solubility in DMSO; [5]): ~10 mM
Structure (SMILES): CCC(COC)N(C)c1nc(C)nc2c1nnn2-c1ccc(OC)cc1C (centres unmarked) [J20 HCl]
Tau % (SH-SY5Y cells [2]): Unchanged

The remaining lines, values behind:

Structure (SMILES): CCC(COC)n1nnc2c(N(C)C3CC3)nc(C)nc21 (centres unmarked) [Compound J11]
sAPPα (%) (SH-SY5Y cells [1]; [4]): Unchanged | Tau % (SH-SY5Y cells [2]): Unchanged | Ki (CRF1): > 1000 nM | solubility (Solubility in DMSO; [5]): ~10 mM (≈ 2900 µg/mL) | PAMPA (PAMPA): 0.94

Structure (SMILES): CCC(COC)n1nnc2c(N3CC(C)CC(C)C3)nc(C)nc21 (centres unmarked) [Compound J12]
sAPPα (%) (SH-SY5Y cells [1]; [4]): Unchanged | Ki (CRF1): > 1000 nM | solubility (Solubility in DMSO; [5]): ~10 mM (≈ 3320 µg/mL) | PAMPA (PAMPA): 2.39

Structure (SMILES): CCC(COC)Nc1nc(C)nc2c1nnn2-c1ccc(OC)cc1C (centres unmarked) [Compound J17]
p-tau after CRF exposure (SH-SY5Y cells [1]; [6]): decreased | tau after CRF exposure (SH-SY5Y cells [1]; [6]): decreased | sAPPα after CRF exposure (SH-SY5Y cells [1]; SH-SY5Y cells, FIG. 19): same as control | sAPPα (%) (SH-SY5Y cells [1]; [4]): Unchanged | sAPPα with increasing concentrations of CRF (SH-SY5Y cells [1]; without CRF and at 50 nM CRF, FIG. 20): lack of increase | brain levels ([3]; oral delivery, 10 mg/kg): ~50 ng/g | plasma levels relative to brain levels ([3]; oral delivery, 10 mg/kg): ~10 fold | brain levels [3, 7]: ~400 ng/g | plasma levels [3, 7]: ~4000 ng/m | p-tau (SH-SY5Y cells [2]): significantly lower | tau (SH-SY5Y cells [2]): significantly lower | Ki (CRF1): 30 nM | solubility (Solubility in DMSO; [5]): ~10 mM (≈ 3560 µg/mL) | novel object preference (J20 mice; all mice): increase with J17 was significant | sAPPα (J20 mice; both genders): increase with J03 but not J17 | p-tau/tau ratio (J20 mice; males): lower still and just missed significance | sAPPα/sAPPβ ratio (J20 mice; males): greater | activity (total interactions) (J20 mice; not significant): lowered | sAPPβ (J20 mice; one high outlier eliminated): decrease | PAMPA (PAMPA): 0.64

Structure (SMILES): CCC(COC)Nc1nc(C)nc2c1nnn2-c1ccc(OC)cc1C (centres unmarked) [J17 HCl]
Tau % (SH-SY5Y cells [2]): Unchanged | p-Tau (%) (SH-SY5Y cells [2]): Unchanged | solubility (Solubility in DMSO): ≈10 mM
